This passage reports Kd results from article doi:10.1101/2025.05.23.655116v1 (biorxiv, 2025).

In the assay the target is T1, FBG domain of Tenascin C (FBG-C, FBG-BAP, hFBG-C) (Homo sapiens, UniProt P24821).
T1 sequence (P24821 1976-2193): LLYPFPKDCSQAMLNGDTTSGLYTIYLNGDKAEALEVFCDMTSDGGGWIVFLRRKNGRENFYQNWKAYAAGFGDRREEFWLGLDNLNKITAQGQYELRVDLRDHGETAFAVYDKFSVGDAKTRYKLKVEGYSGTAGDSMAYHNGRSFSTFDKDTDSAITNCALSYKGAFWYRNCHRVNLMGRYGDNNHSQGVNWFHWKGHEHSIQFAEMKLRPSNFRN
Nature of the assay: SPR, biotinylated FBG on SA chip. The format is binding.

`COc1ccc(CN(C)CCc2cnn(C)c2)cc1OC[C@@H](O)CN1CCCCC1` [compound 830, 73494830] came in with a Kd of 553 µM.
